Where two headings read alike, the source gives them in different places.
Tested on: monocistronic NK5.1 HCV replicon in Huh7 cells
Experiment: HCV replicon assay, monocistronic replicon cell line
Format: cell-based, hepatitis C virus
Conditions: Hepatitis C virus, read-out: Mono EC50 Median
Outline: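 Huh7 cells carrying the monocistronic NK5.1 replicon, seeded 24 h before dosing, were exposed to six-point half-log compound series (0.6% DMSO) for 3 days at 37 °C. Replicon RNA was quantified by TaqMan RT-PCR, normalised to GAPDH and compared with DMSO controls to derive EC50.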

[1] = Huh-7, 72 h, Table 1, monocistronic replicon in Huh7 cells, 3 days incubation, HCV RNA/GAPDH RNA by TaqMan RT-PCR
[2] = Huh-7, monocistronic NK5.1 HCV replicon in Huh7 cells, median value

| Structure (SMILES) | EC50 [1] [µM] | EC50 [2] [µM] |
| --- | --- | --- |
| Oc1ccc2ccccc2c1-c1nc(-c2ncccc2-c2ccccc2)no1 [Compound 229, 1-[3-(3-Phenyl-pyridin-2-yl)-[1,2,4]oxadiazol-5-yl]-naphthalen-2-ol] | > 10 | > 10 |
| COc1cccc(-c2nc(-c3ncccc3-c3ccccc3)no2)c1O [Compound 230, 2-Methoxy-6-[3-(3-phenyl-pyridin-2-yl)-[1,2,4]oxadiazol-5-yl]-phenol] | 9.8 | 9.8 |
| CN(C)c1ccc(-c2nc(-c3ncccc3-c3ccccc3)no2)c(O)c1 [Compound 231, 5-Dimethylamino-2-[3-(3-phenyl-pyridin-2-yl)-[1,2,4]oxadiazol-5-yl]-phenol] | 2.4 | 2.4 |
| Cc1ccc(O)c(-c2nc(-c3ncccc3-c3ccccc3)no2)c1 [Compound 232, 4-Methyl-2-[3-(3-phenyl-pyridin-2-yl)-[1,2,4]oxadiazol-5-yl]-phenol] | > 32 | > 32 |
| COc1cc(O)c(-c2nc(-c3ncccc3-c3ccccc3)no2)c(OC)c1 [Compound 233, 3,5-Dimethoxy-2-[3-(3-phenyl-pyridin-2-yl)-[1 ,2,4]oxadiazol-5-yl]-phenol] | 2.1 | 2.1 |
| CCOc1ccc(-c2nc(-c3ncccc3-c3ccccc3)no2)c(O)c1 [Compound 234, 5-Ethoxy-2-[3-(3-phenyl-pyridin-2-yl)-[1,2,4]oxadiazol-5-yl]-phenol] | > 19 | > 19 |
| COc1ccc(-c2nc(-c3ncccc3-c3ccccc3)no2)c(O)c1 [Compound 235, 5-Methoxy-2-[3-(3-phenyl-pyridin-2-yl)-[1,2,4]oxadiazol-5-yl]-phenol] | 2.3 | 2.3 |
| Oc1ccc(O)c(-c2nc(-c3ncccc3-c3ccccc3)no2)c1 [Compound 236, 2-[3-(3-Phenyl-pyridin-2-yl)-[1,2,4]oxadiazol-5-yl]-benzene-1,4-diol] | 2.2 | 2.2 |
| COc1cccc(-c2nc(-c3ccc(NC(=O)OC(C)(C)C)cn3)no2)c1O [Compound 237, {6-[5-(2-Hydroxy-3-methoxy-phenyl)-[1,2,4]oxadiazol-3-yl]-pyridin-3-yl}-carbamic acid tert-butyl ester] | > 32 | > 32 |
| COc1ccc(-c2nc(-c3ccc(NC(=O)OC(C)(C)C)cn3)no2)c(O)c1 [Compound 238, {6-[5-(2-Hydroxy-4-methoxy-phenyl)-[1,2,4]oxadiazol-3-yl]-pyridin-3-yl}-carbamic acid tert-butyl ester] | 1.9 | 1.9 |
| COc1ccc(O)c(-c2nc(-c3ccc(NC(=O)OC(C)(C)C)cn3)no2)c1 [Compound 239, {6-[5-(2-Hydroxy-5-methoxy-phenyl)-[1,2,4]oxadiazol-3-yl]-pyridin-3-yl}-carbamic acid tert-butyl ester] | 2.1 | 2.1 |
| COc1cc(O)c(-c2nc(-c3ncccc3C)no2)c(OC)c1 [Compound 240, 3,5-Dimethoxy-2-[3-(3-methyl-pyridin-2-yl)-[1,2,4]oxadiazol-5-yl]-phenol] | 0.7 | 0.7 |
| COc1cccc(O)c1-c1nc(-c2ncccc2C)no1 [Compound 241, 3-Methoxy-2-[3-(3-methyl-pyridin-2-yl)-[1,2,4]oxadiazol-5-yl]-phenol] | > 10 | > 10 |
| COc1cc(Br)cc(-c2nc(-c3ncccc3C)no2)c1O [Compound 242, 4-Bromo-2-methoxy-6-[3-(3-methyl-pyridin-2-yl)-[1,2,4]oxadiazol-5-yl]-phenol] | 8.3 | 8.3 |
| CCOc1ccc(-c2nc(-c3ncccc3C)no2)c(O)c1 [Compound 243, 5-Ethoxy-2-[3-(3-methyl-pyridin-2-yl)-[1,2,4]oxadiazol-5-yl]-phenol] | 2.2 | 2.2 |
| CC(C)(C)OC(=O)Nc1ccc(-c2noc(-c3cc(Br)ccc3O)n2)nc1 [Compound 244, {6-[5-(5-Bromo-2-hydroxy-phenyl)-[1,2,4]oxadiazol-3-yl]-pyridin-3-yl}-carbamic acid tert-butyl ester] | 7.3 | 7.3 |
| Cc1ccc(O)c(-c2nc(-c3ccc(NC(=O)OC(C)(C)C)cn3)no2)c1 [Compound 245, {6-[5-(2-Hydroxy-5-methyl-phenyl)-[1,2,4]oxadiazol-3-yl]-pyridin-3-yl}-carbamic acid tert-butyl ester] | > 32 | > 32 |
| COc1cccnc1-c1noc(-c2cccc(OC)c2O)n1 [Compound 246, 2-Methoxy-6-[3-(3-methoxy-pyridin-2-yl)-[1,2,4]oxadiazol-5-yl]-phenol] | 19 | 19 |
| COc1ccc(-c2nc(-c3ncccc3OC)no2)c(O)c1 [Compound 247, 5-Methoxy-2-[3-(3-methoxy-pyridin-2-yl)-[1,2,4]oxadiazol-5-yl]-phenol] | 4.1 | 4.1 |
| COc1ccc(O)c(-c2nc(-c3ncccc3OC)no2)c1 [Compound 248, 4-Methoxy-2-[3-(3-methoxy-pyridin-2-yl)-[1,2,4]oxadiazol-5-yl]-phenol] | 13 | 13 |
| COc1cccnc1-c1noc(-c2cc(Br)ccc2O)n1 [Compound 249, 4-Bromo-2-[3-(3-methoxy-pyridin-2-yl)-[1,2,4]oxadiazol-5-yl]-phenol] | 0.76 | 0.76 |

| Structure (SMILES) | EC50 [1] [µM] | EC50 [2] [µM] |
| --- | --- | --- |
| COc1cccnc1-c1noc(-c2cc(C)ccc2O)n1 [Compound 250, 2-[3-(3-Methoxy-pyridin-2-yl)-[1,2,4]oxadiazol-5-yl]-4-methyl-phenol] | 2 | 2 |
| COc1cccc(-c2nc(-c3ccc(N)cn3)no2)c1O [Compound 251, 2-[3-(5-Amino-pyridin-2-yl)-[1,2,4]oxadiazol-5-yl]-6-methoxy-phenol] |  | > 32 |
| COc1ccc(O)c(-c2nc(-c3ccc(N)cn3)no2)c1 [Compound 252, 2-[3-(5-Amino-pyridin-2-yl)-[1,2,4]oxadiazol-5-yl]-4-methoxy-phenol] |  | 9.2 |
| COc1ccc(-c2nc(-c3ccc(N)cn3)no2)c(O)c1 [Compound 253] |  | > 32 |
| Nc1ccc(-c2noc(-c3cc(Br)ccc3O)n2)nc1 [Compound 254, 2-[3-(5-Amino-pyridin-2-yl)-[1,2,4]oxadiazol-5-yl]-4-bromo-phenol] |  | 32 |
| Cc1ccc(O)c(-c2nc(-c3ccc(N)cn3)no2)c1 [Compound 255, 2-[3-(5-Amino-pyridin-2-yl)-[1,2,4]oxadiazol-5-yl]-4-methyl-phenol] |  | 24 |
| Oc1ccc2ccccc2c1-c1nc(-c2ncccc2Br)no1 [Compound 256, 1-[3-(3-Bromo-pyridin-2-yl)-[1,2,4]oxadiazol-5-yl]-naphthalen-2-ol] |  | 2.1 |
| COc1cccc(-c2nc(-c3ncccc3Br)no2)c1O [Compound 257, 2-[3-(3-Bromo-pyridin-2-yl)-[1,2,4]oxadiazol-5-yl]-6-methoxy-phenol] |  | > 32 |
| COc1ccc(O)c(-c2nc(-c3ncccc3Br)no2)c1 [Compound 258, 2-[3-(3-Bromo-pyridin-2-yl)-[1,2,4]oxadiazol-5-yl]-4-methoxy-phenol] |  | > 10 |
| COc1ccc(-c2nc(-c3ncccc3Br)no2)c(O)c1 [Compound 259, 2-[3-(3-Bromo-pyridin-2-yl)-[1,2,4]oxadiazol-5-yl]-5-methoxy-phenol] |  | 2.5 |
| COc1cccc(-c2nc(-c3ccc(NC(C)=O)cn3)no2)c1O [Compound 260, N-{6-[5-(2-Hydroxy-3-methoxy-phenyl)-[1,2,4]oxadiazol-3-yl]-pyridin-3-yl}-acetamide] |  | 44.3 |
| COc1ccc(-c2nc(-c3ccc(NC(C)=O)cn3)no2)c(O)c1 [Compound 261, N-{6-[5-(2-Hydroxy-4-methoxy-phenyl)-[1,2,4]oxadiazol-3-yl]-pyridin-3-yl}-acetamide] |  | 45.3 |
| COc1ccc(O)c(-c2nc(-c3ccc(NC(C)=O)cn3)no2)c1 [Compound 262, N-{6-[5-(2-Hydroxy-5-methoxy-phenyl)-[1,2,4]oxadiazol-3-yl]-pyridin-3-yl}-acetamide] |  | 19.2 |
| CC(=O)Nc1ccc(-c2noc(-c3cc(Br)ccc3O)n2)nc1 [Compound 263, N-{6-[5-(5-Bromo-2-hydroxy-phenyl)-[1,2,4]oxadiazol-3-yl]-pyridin-3-yl}-acetamide] |  | > 19 |
| CC(=O)Nc1ccc(-c2noc(-c3cc(C)ccc3O)n2)nc1 [Compound 264, N-{6-[5-(2-Hydroxy-5-methyl-phenyl)-[1,2,4]oxadiazol-3-yl]-pyridin-3-yl}-acetamide] |  | > 19 |
| COc1ccc(-c2nc(-c3ccc(C(F)(F)F)cn3)no2)c(O)c1OC [Compound 265, 2,3-Dimethoxy-6-[3-(5-trifluoromethyl-pyridin-2-yl)-[1,2,4]oxadiazol-5-yl]-phenol] |  | 28.5 |
| Cc1cccnc1-c1noc(-c2cc(O)ccc2OCc2ccccc2)n1 [Compound 267, 4-Benzyloxy-3-[3-(3-methyl-pyridin-2-yl)-[1,2,4]oxadiazol-5-yl]-phenol] |  | 15.9 |
| CCOc1cccc(-c2nc(-c3ncccc3C)no2)c1O [Compound 268, 2-Ethoxy-6-[3-(3-methyl-pyridin-2-yl)-[1,2,4]oxadiazol-5-yl]-phenol] |  | 28.7 |
| CCOc1cccc(-c2nc(-c3ccc(C(F)(F)F)cn3)no2)c1O [Compound 269, 2-Ethoxy-6-[3-(5-trifluoromethyl-pyridin-2-yl)-[1,2,4]oxadiazol-5-yl]-phenol] |  | 35.9 |
| Cc1cccnc1-c1noc(-c2cc(N)ccc2O)n1 [Compound 270, 4-Amino-2-[3-(3-methyl-pyridin-2-yl)-[1,2,4]oxadiazol-5-yl]-phenol] |  | 27.7 |
| CCOc1ccc(O)c(-c2nc(-c3ncccc3C)no2)c1 [Compound 271, 4-Ethoxy-2-[3-(3-methyl-pyridin-2-yl)-[1,2,4]oxadiazol-5-yl]-phenol] |  | 0.61 |

— patent US20050075375A1 (priority 2003, published 2005)
